Experimental data from paper PMC12308784, “Organometallic Half-Sandwich Complexes of 1,10-Phenanthroline Derivatives with Improved Solubility, Albumin-Binding, and Nanoformulation Potential Targeting Drug Resistance in Cancer” (Inorganic Chemistry, 2025).
Values joined by “and” are separate entries in the source; they are usually repeats but may differ in a detail not shown here. Equal entries are not always repeated.

Columns and labels:
[1] = target: T1, HSA Sudlow’s site I (IIA subdomain) (Homo sapiens, UniProt P02768); assay: warfarin (WF) site marker displacement on HSA; type: binding; details: PBS’; t = 25 °C; HSA–WF 1:1, 1.2 μM
T1 construct: purchased Sigma-Aldrich A8763
Experimental: To further explore the binding affinity and site specificity of the metal complexes, site marker displacement experiments were conducted using WF and DG, which bind to Sudlow’s site I (in IIA subdomain) and to Sudlow’s site II (in IIIA subdomain), respectively. The displacement of these fluorescence probes directly confirms the interactions of the metal complexes with the respective binding sites. The displacement constants of WF (KWF′) by the metal complexes (Figure c,d, Table ) were correlated with the Trp-214 quenching data.
(§1) Fluorescence measurements were carried out on a Fluoromax (Horiba Jobin Yvon) spectrofluorometer using a 1 cm × 1 cm quartz cuvette in order to assess the interactions of the complexes with HSA in PBS’ medium at 25 °C. The calculated quenching or displacement conditional constants for the HSA-complex species were obtained using the computer program HypSpec. Calculations always were based on data obtained from at least two independent measurements. Self-absorbance and inner filter effect had to be taken into account, and corrections were made as it was described in our former works. ,
Table S7. Conditions applied for steady -state spectrofluorometric measurements.
cHSA cMARKER ccomplex λEX λEM slit widths
(μM) (μM) (μM) (nm) (nm) EX/EM […]
S.; Deflon, V. M.; Ferreira, A. G.; Cominetti, M. R.; Batista, A. A. Cytotoxicity of Ru(II) Piano-
Stool Complexes with Chloroquine and Chelating Ligands against Breast and Lung Tumor Cells:
Interactions with DNA and BSA. J Inorg Biochem 2015, 153, 150–161.
Van Deun, R.; Van Hecke, K. Antitumor Activity of Organoruthenium Complexes with Chelate

[2] = H2O/Cl– co-ligand exchange constant by UV–vis spectrophotometry; type: physicochemical; details: pH = 6.0, 20 mM phosphate buffer; t = 25 °C
Experimental: The coordinated chlorido ligand can undergo spontaneous partial exchange upon dissolution, making it essential to determine the equilibrium constant for the [M(η^6-arene/η^5-arenyl)(ligand)-Cl]^+ + H2O ⇌ [M(η^6-arene/η^5-arenyl)(ligand)(H2O)]^2+ + Cl^– process (or for the reverse direction) to evaluate the ratio of chlorido to aqua complexes. The logK′ (H2O/Cl^–) constants were determined by UV–vis spectrophotometry (Figure ) due to the changes in the charge transfer bands. […] Importantly, this process is slow for the RuCym complexes, which requires a longer time to reach equilibrium, necessitating careful equilibration in experimental setups before further analysis. Therefore, in the case of the RuCym complexes, individual samples were prepared and their spectra were measured after 1 h, while the spectra for the RhCp* complexes were obtained by direct titration with the KCl solution. The appearance of isosbestic points in the spectra confirms the clear equilibrium between chlorido- and aqua complexes.
4 (a) Changes in the UV–vis spectra of complex RuCymBP due to the H2O/Cl^– coligand exchange process, (b) with absorbance variation at 357 nm plotted as a function of the chloride concentration (○) with the fitted curve (dashed line). Individual samples were prepared and the spectra were recorded after 1 h waiting time. {c complex = 28 μM; c Cl– = 56 μM – 0.29 M; t = 25 °C; pH = 6.0 (20 mM phosphate buffer)}.
An Agilent Cary 8454 diode array spectrophotometer was utilized to obtain UV–vis spectra in the wavelength range 190–1100 nm; the path length was 1 cm. The concentrations of the complexes were between 20 and 100 μM. The actual pH of the samples were measured with an Orion 710A pH-meter equipped with a Metrohm combined electrode (type 6.0234.100) and the pH titrations were performed by a KOH solution using a Metrohm 665 Dosimat buret at 25.0 °C. […] The computer program HypSpec was used to calculate the equilibrium constants.

[3] = target: T2, human serum albumin (HSA), Trp-214 in Sudlow’s site I (Homo sapiens, UniProt P02768); assay: Trp-214 fluorescence quenching of HSA; type: binding; details: PBS’; t = 25 °C; 24 h incubation; c HSA = 1.2 μM; RuCym values conditional at 24 h
T2 construct: purchased Sigma-Aldrich A8763
From the text: Fluorescence spectroscopy was utilized to elucidate the binding sites on HSA that are targeted by the metal complexes. This investigation concentrated on two key aspects: the quenching of HSA’s intrinsic fluorescence attributed to the sole tryptophan residue (Trp-214) and the displacement of site-specific fluorescent markers warfarin (WF) and dansylglycine (DG). Trp-214 is situated in Sudlow’s site I within the IIA subdomain, rendering it a valuable probe for evaluating interactions at this site. Fluorometric measurements, conducted over a 5 h time frame (see example for RhCp*BP in Figure S19), corroborated the results of UV–vis experiments, the quenching of fluorescence took several hours for the RhCp* complexes, while RuCym compounds had no remarkable effect of Trp-214 fluorescence. Quenching studies were conducted over a 24 h incubation period. This time frame is most probably not enough to reach equilibrium with RuCym complexes; however, this is considered as the upper limit that can be physiologically relevant, as longer incubation times are rendered irrelevant by metabolism and elimination. […] Quenching constants (KQ^′) were computed using HypSpec software. […] It should be noted that quenching constants calculated for the RuCym complexes represent only a temporary state at 24 h of incubation time.
7 Binding interactions of RhCp*BP with HSA analyzed via fluorescence quenching and marker displacement assays. (a) Trp214 fluorescence quenching by RhCp*BP. (b) Measured (dots) and fitted (dashed lines) quenching curves for RhCp*BP, RuCymBP, RhCp*DCP, and RuCymDCP. Fluorescence spectra of the (c) HSA–WF 1:1 and (e) HSA–DG 1:1 systems by the addition of RhCp*BP (dashed lines indicate the free site marker) and the corresponding fluorescence intensity curves at the indicated wavelengths (d,f). The dotted line in figure (d) denotes the fitted intensities. {c HSA = 1.2 μM; c marker = 0 or 1.2 μM PBS’; t = 25 °C}.
as §1, with “works. , […]” for “works. ,”
Table S7. Conditions applied for steady -state spectrofluorometric measurements. cHSA cMARKER ccomplex λEX λEM slit widths […]

T2 sequence (P02768 25-609): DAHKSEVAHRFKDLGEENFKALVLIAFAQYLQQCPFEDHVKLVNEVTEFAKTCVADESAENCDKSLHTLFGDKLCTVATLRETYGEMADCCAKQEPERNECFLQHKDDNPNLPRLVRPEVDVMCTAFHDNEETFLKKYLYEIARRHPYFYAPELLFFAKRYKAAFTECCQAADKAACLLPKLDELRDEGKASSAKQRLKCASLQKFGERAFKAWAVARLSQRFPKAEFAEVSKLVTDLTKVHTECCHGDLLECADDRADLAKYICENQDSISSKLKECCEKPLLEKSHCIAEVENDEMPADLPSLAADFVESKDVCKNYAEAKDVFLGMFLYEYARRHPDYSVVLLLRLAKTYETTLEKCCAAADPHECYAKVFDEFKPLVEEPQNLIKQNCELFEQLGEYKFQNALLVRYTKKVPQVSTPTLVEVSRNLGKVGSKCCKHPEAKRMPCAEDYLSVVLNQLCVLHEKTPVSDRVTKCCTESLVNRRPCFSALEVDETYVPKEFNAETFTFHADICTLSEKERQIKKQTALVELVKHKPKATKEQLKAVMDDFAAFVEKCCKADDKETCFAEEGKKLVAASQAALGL
T1 sequence (P02768 25-609): as above

Molecule | logK WF′ (WF displacement constant) [1] | logK′ (H2O/Cl–) [2] | logK Q′ (quenching constant) [3]
Cc1c(C)c(C)[c-](C)c1C.Clc1ccnc2c1ccc1c(Cl)ccnc12.[Cl-].[Cl-].[Rh+3] [RhCp*DCP, [Rh(III)(η^5-C5Me5)(4,7-dichloro-1,10-phenanthroline)Cl]Cl] | 4.8 ± 0.1 | 2.85 ± 0.01 ^b | 4.6 and 4.6 ± 0.1
Cc1ccc(C(C)C)cc1.[Cl-].[Cl-].[Ru+2].c1ccc(-c2ccnc3c2ccc2c(-c4ccccc4)ccnc23)cc1 [RuCymBP, [Ru(II)(η^6-p-cymene)(bathophenanthroline)Cl]Cl] | 4.4 ± 0.1 | 2.31 ± 0.13 | 4.3 ± 0.1
Cc1ccc(C(C)C)cc1.Clc1ccnc2c1ccc1c(Cl)ccnc12.[Cl-].[Cl-].[Ru+2] [RuCymDCP, [Ru(II)(η^6-p-cymene)(4,7-dichloro-1,10-phenanthroline)Cl]Cl] | ≤4.3 | 2.31 ± 0.03 | ≤3.8
[Rh(III)(η^5-C5Me5)(bathophenanthroline)Cl]Cl [RhCp*BP] | 5.6 ± 0.1 | 2.98 ± 0.01 | 5.5 and 5.5 ± 0.1
